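Interpolation was linear, between the two tested concentrations surrounding the appropriate level; five concentrations were tested over 48 hours in 96-well plates. At the GI50, growth is halved.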 The source made the active and inactive calls. Cut-off read from the data, not from the text of the source: active = GI50 up to about 1.1 µM and inactive = higher.
Assays:
Assay in all cases: NCI tumour cell line growth inhibition, 48 h
T47D = tested on: T47D
HOP-62 = tested on: HOP-62
KM12 = tested on: KM12
MDA-N = tested on: MDA-N
NCI/ADR-RES = tested on: NCI/ADR-RES
EKVX = tested on: EKVX
MDA-MB-231 = tested on: MDA-MB-231
SR = tested on: SR
RXF 393 = tested on: RXF 393
MDA-MB-435 = tested on: MDA-MB-435
NCI-H23 = tested on: NCI-H23
HCC 2998 = tested on: HCC 2998
NCI-H460 = tested on: NCI-H460
NCI-H522 = tested on: NCI-H522
NCI-H226 = tested on: NCI-H226
SF-295 = tested on: SF-295
MOLT-4 = tested on: MOLT-4
Malme-3M = tested on: Malme-3M
DU-145 = tested on: DU-145
ACHN = tested on: ACHN
A549 = tested on: A549
Hs-578T = tested on: Hs-578T
786-0 = tested on: 786-0
M14 = tested on: M14
OVCAR-4 = tested on: OVCAR-4
SF-539 = tested on: SF-539
TK-10 = tested on: TK-10
UACC-62 = tested on: UACC-62
K562 = tested on: K562
UACC-257 = tested on: UACC-257
SK-MEL-2 = tested on: SK-MEL-2
HOP-92 = tested on: HOP-92
HCT-116 = tested on: HCT-116
UO-31 = tested on: UO-31
BT-549 = tested on: BT-549
HCT-15 = tested on: HCT-15
U-251 = tested on: U-251
SK-MEL-28 = tested on: SK-MEL-28
LOX IMVI = tested on: LOX IMVI
CAKI-1 = tested on: CAKI-1
RPMI-8226 = tested on: RPMI-8226
SF-268 = tested on: SF-268
SNB-19 = tested on: SNB-19
SW-620 = tested on: SW-620
OVCAR-8 = tested on: OVCAR-8
SK-OV-3 = tested on: SK-OV-3
HT-29 = tested on: HT-29
CCRF-CEM = tested on: CCRF-CEM
OVCAR-5 = tested on: OVCAR-5
IGROV-1 = tested on: IGROV-1
SK-MEL-5 = tested on: SK-MEL-5
OVCAR-3 = tested on: OVCAR-3
MCF7 = tested on: MCF7
PC-3 = tested on: PC-3
SN12C = tested on: SN12C
SNB-75 = tested on: SNB-75
HL-60 = tested on: HL-60
COLO 205 = tested on: COLO 205

Measured: GI50

S=C(N/N=C\c1ccccn1)N(Cc1ccccn1)Cc1ccccn1
active: EKVX 0.721 µM | MDA-MB-231 0.419 µM | NCI-H460 1.11 µM | NCI-H522 0.0637 µM | NCI-H226 < 0.0419 µM | MOLT-4 0.0582 µM | ACHN 0.316 µM | 786-0 0.697 µM | M14 1.1 µM | OVCAR-4 0.91 µM | TK-10 0.637 µM | K562 0.205 µM | HCT-116 0.557 µM | U-251 0.195 µM | LOX IMVI 0.646 µM | CAKI-1 0.229 µM | SF-268 0.431 µM | SW-620 0.333 µM | OVCAR-8 0.367 µM | HT-29 0.0822 µM | CCRF-CEM < 0.019 µM | IGROV-1 0.427 µM | SK-MEL-5 1.07 µM | MCF7 0.111 µM | SN12C 0.34 µM
0.622 µM: HCT-15
inactive: T47D 1.46 µM | HOP-62 2.71 µM | KM12 1.49 µM | MDA-N 7.55 µM | NCI/ADR-RES 1.19 µM | SR 1.42 µM | RXF 393 10.4 µM | MDA-MB-435 4.45 µM | NCI-H23 1.87 µM | HCC 2998 7.03 µM | SF-295 1.65 µM | Malme-3M 1.37 µM | DU-145 2.29 µM | A549 2.3 µM | Hs-578T 16 µM | SF-539 4.68 µM | UACC-62 2.08 µM | UACC-257 4.82 µM | SK-MEL-2 11.6 µM | HOP-92 1.32 µM | UO-31 1.26 µM | BT-549 1.93 µM | SK-MEL-28 1.22 µM | RPMI-8226 1.17 µM | SNB-19 3.47 µM | SK-OV-3 2.04 µM | OVCAR-5 13 µM | OVCAR-3 1.94 µM | PC-3 6.89 µM | SNB-75 5.43 µM

CCOC(=O)C(NC(=O)c1ccccc1)(Nc1ccc(S(=O)(=O)Nc2ccc(OC)nn2)cc1)C(F)(F)F (centres undefined)
> 100 µM: HCT-15
inactive: T47D > 100 µM | HOP-62 > 100 µM | KM12 > 100 µM | MDA-N > 100 µM | NCI/ADR-RES > 100 µM | EKVX > 100 µM | HL-60 > 100 µM | MDA-MB-231 > 100 µM | SR > 100 µM | RXF 393 > 100 µM | MDA-MB-435 > 100 µM | NCI-H23 > 100 µM | HCC 2998 > 100 µM | NCI-H460 > 100 µM | COLO 205 > 100 µM | NCI-H522 > 100 µM | NCI-H226 > 100 µM | SF-295 > 100 µM | MOLT-4 > 100 µM | Malme-3M > 100 µM | DU-145 > 100 µM | ACHN > 100 µM | A549 > 100 µM | Hs-578T > 100 µM | 786-0 > 100 µM | M14 > 100 µM | OVCAR-4 > 100 µM | SF-539 > 100 µM | TK-10 > 100 µM | UACC-62 > 100 µM | K562 > 100 µM | UACC-257 > 100 µM | SK-MEL-2 > 100 µM | HOP-92 > 100 µM | HCT-116 > 100 µM | UO-31 > 100 µM | BT-549 > 100 µM | U-251 > 100 µM | SK-MEL-28 > 100 µM | LOX IMVI > 100 µM | CAKI-1 > 100 µM | RPMI-8226 > 100 µM | SF-268 > 100 µM | SNB-19 > 100 µM | SW-620 > 100 µM | OVCAR-8 > 100 µM | SK-OV-3 > 100 µM | HT-29 > 100 µM | CCRF-CEM > 100 µM | OVCAR-5 > 100 µM | IGROV-1 > 100 µM | SK-MEL-5 > 100 µM | OVCAR-3 > 100 µM | MCF7 > 100 µM | PC-3 > 100 µM | SN12C > 100 µM | SNB-75 > 100 µM

— ChEMBL document CHEMBL1201862, “PubChem BioAssay data set” (2004)
